Source: patent US10213451B2, “Methods and compounds for modulating the secretion or expression of adhesion proteins or angiopoietins of cells” (PACIFIC ARROW LIMITED, priority 2004, dated 2019)
Values after ≈ are worked out from the molar mass of the structure shown. Read-outs that look alike come from different tables or passages of the source.

Legend:
[1] = test system: tumor growth; assay: MTT anticancer activity of Y, X and hydrolysis products (FIG. 4C); type: cell-based; conditions: for IC50: read-out: IC50, inhibits tumor growth / anticancer activity
In short: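 Tumour cell lines seeded 24 h beforehand (10,000–40,000/well by line), then exposed to drug for 48 h (HepG2, U2OS 72 h; MCF-7 96 h). MTT 0.5 mg/mL added for 1 h, formazan dissolved in DMSO, OD 490 nm. % growth relative to pre-treatment (T0) and control; % cytotoxicity used when TD<T0.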

[2] = test system: fibronectin expression in ES2 cells; assay: Microarray gene expression, Table 1; type: cell-based, human
Method: (§1) Y/D is the ratio (in folds) of gene expression in cells treated with compound Y as compared with those of the no drug control (D),
(§2) YM/D is the ratio of gene expression in cells treated with compound YM (ACH-Y, Y without sugar moiety) compared with those of the no drug control (D)
(§3) Cell culture and drug-treatment.: ES2 cells were seeded in a T-25 flask with 4.5 million cells per flask for 24 hours. Cell culture was replaced with fresh medium with xanifolia-Y (Y) or DMSO no drug control (D) for 24 hours. Cells were then harvested for RNA isolation. Three experiments were done.
(§4) RNA extraction, labeling, hybridization, and data analysis. RNA was extracted from tumor cells using the Qiagen RNeasy Kit. RNA quality and quantity was checked by the Agilent BioAnalyzer and the NanoDrop® ND-1000 spectrophotometer respectively before further manipulation. The first and second cDNA strands were synthesized from 20 ng of total RNA using the Affymetrix T7 oligo(dT) primer protocol and kit for the two-cycle amplification. To produce amplified biotin-labeled-cRNA, the cDNA was […] by in vitro transcription using the MegaScript kit from Ambion. 15.0 μg of the labeled cRNA was fragmented and re-checked for concentration using the NanoDrop® ND-1000 spectrophotometer. A hybridization cocktail containing Affymetrix spike-in controls and fragmented labeled cRNA was loaded onto the Human U133 Plus 2.0 GeneChip® oligonucleotide array. The Affymetrix array (Affymetrix, Inc. Santa Clara, Calif.) is comprised of over 1,300,000 unique oligonucleotide features that represent greater than 38,500 well-substantiated human genes. The array was hybridized for 16 hours at 45° C. with rotation at 60 rpm then washed and stained with a strepavidin, R-phycoerythrin conjugate stain on the Affymetrix Fluidicis Station 450. Signal amplification was done using biotinylated antistreptavidin. The arrays were scanned using the GeneChip® 3000 confocal laser scanner with autoloader. The images were analyzed and quality control metrics recorded using Affymetrix GCOS software version 1.4. Lastly, the expression value for each gene was calculated using dChip PM-only model based or Plier algorithm.
(§5) Pairwise comparisons were made as follows: Treated vs. Control (Y vs. D), Modified Drug vs Control (YM/ACY-H vs. D) and Treated vs. Modified Drug (Y vs. YM/ACH-Y) Cel files analyzed using the Bioconductor package of R Statistical programming. Limma analysis generated a reasonable number of changing genes between the samples.
(§6) The raw data in the .CEL files were normalized by the GCRMA method (robust multi-array analysis). It is implemented in Bioconductor (http://www.bioconductor.org/). The raw signal intensity data were normalized, background corrected and summarized based on certain statistical models, and an expression value, in log 2-scale, is obtained per chip per probe set. Then the null hypothesis was tested that there's no significant changes in gene expression between the treatment pairs. This was done by LIMMA and is also implemented in Bioconductor. It uses empirical Bayes method to estimate the variance in gene expression. One comparison was made, namely, High Grade vs. Low Grade. The raw p-values were adjusted by the Benjamnin-Hochberg method for false discovery rate (FDR) control. All data sets contained a significant number of genes with a p-value less than 0.05, which is that the probability that a gene is NOT differential expressed (false positive) is 1:20.

[3] = test system: integrin (vitronectin receptor) expression in ES2 cells; assay: Microarray gene expression, Table 2; type: cell-based, human
Method: as §1, §2, §3, §4, §5
The raw data in the .CEL files were normalized by the GCRMA method (robust multi-array analysis). It is implemented in Bioconductor (http://www.bioconductor.org/). […]

[4] = test system: integrin expression in ES2 cells; assay: Microarray gene expression, Table 6; type: cell-based, human; conditions: for ITGA3 integrin, alpha 3, gene expression ratio to no drug control (D): probe 201474_s_at; for ITGAV integrin, alpha V (vitronectin receptor), gene expression ratio to no drug control (D): probe 202351_at; for ITGB5 Integrin, beta 5, gene expression ratio to no drug control (D): probe 214021_x_at; for CD47 antigen (integrin-associated signal transducer), gene expression ratio to no drug control (D): probe 227259_at; for ITGB2 integrin, beta 2, gene expression ratio to no drug control (D): probe 1555349_a_at; for expression ratio to the control, integrin family: span over probes of Table 6
Method: as §1, §2, §3, §4, §5, §6

[5] = test system: tenascin-C expression in ES2 cells; assay: Microarray gene expression, Table 9; type: cell-based, human; conditions: probe 201645_at
Method: as §1, §2, §3
RNA extraction, labeling, hybridization, and data analysis. RNA was extracted from tumor cells using the Qiagen RNeasy Kit. RNA quality and quantity was checked by the Agilent BioAnalyzer and the NanoDrop® ND-1000 spectrophotometer respectively before further manipulation. […] The images were analyzed and quality control metrics recorded using Affymetrix GCOS software version 1.4. Lastly, the expression value for each gene was calculated using dChip PM-only model based or Plier algorithm.
Pairwise comparisons were made as follows: Treated vs. Control (Y vs. D), Modified Drug vs Control (YM/ACY-H vs. D) and Treated vs. Modified Drug (Y vs. YM/ACH-Y) Cel files analyzed using the Bioconductor package of R Statistical programming. […]

[6] = test system: thrombospondin in ES2 cells; assay: Microarray gene expression, Table 15; type: cell-based, human
Method: as §1, §2, §3, §4, §5, §6

Row | SMILES | IC50 ([1]; FIG. 4C) | FN1 fibronectin 1, gene expression ratio to no drug control (D) ([2]; probe 210495_x_at) | FN1 fibronectin 1, gene expression ratio to no drug control (D) ([2]; probe 211719_x_at) | FN1 fibronectin 1, gene expression ratio to no drug control (D) ([2]; probe 212464_s_at) | FN1 fibronectin 1, gene expression ratio to no drug control (D) ([2]; probe 216442_x_at) | ITGAV integrin, alpha V (vitronectin receptor), gene expression ratio to no drug control (D) ([3]; probe 202351_at) | ITGAV integrin, alpha V (vitronectin receptor), gene expression ratio to no drug control (D) ([3]; probe 236251_at) | ITGA3 integrin, alpha 3, gene expression ratio to no drug control (D) [4] | ITGA6 integrin, alpha 6, gene expression ratio to no drug control (D) ([4]; probe 201656_at) | ITGAV integrin, alpha V (vitronectin receptor), gene expression ratio to no drug control (D) [4] | ITGBL1 Integrin, beta-like 1, gene expression ratio to no drug control (D) ([4]; probe 205422_s_at) | ITGA4 integrin, alpha 4, gene expression ratio to no drug control (D) ([4]; probe 205884_at) | ITGA4 integrin, alpha 4, gene expression ratio to no drug control (D) ([4]; probe 205885_s_at) | ITGA4 integrin, alpha 4, gene expression ratio to no drug control (D) ([4]; probe 213416_at) | ITGB5 Integrin, beta 5, gene expression ratio to no drug control (D) [4] | ITGBL1 Integrin, beta-like 1, gene expression ratio to no drug control (D) ([4]; probe 214927_at) | ITGA6 integrin, alpha 6, gene expression ratio to no drug control (D) ([4]; probe 215177_s_at) | CD47 antigen (integrin-associated signal transducer), gene expression ratio to no drug control (D) [4] | ITGB2 integrin, beta 2, gene expression ratio to no drug control (D) [4] | ITGBL1 Integrin, beta-like 1, gene expression ratio to no drug control (D) ([4]; probe 1557080_s_at) | further results
1 | C/C=C(/C)C(=O)O[C@H]1[C@H](OC(=O)/C(C)=C\C)[C@@]2(CO)C(CC1(C)C)C1=CCC3[C@@]4(C)CC[C@H](O[C@@H]5OC(C(=O)O)[C@@H](O)C(O[C@@H]6O[C@@H](CO)C(O)C6O)C5O[C@@H]5OC(CO)[C@H](O)C(O)C5O)C(C)(C)C4CC[C@@]3(C)[C@]1(C)[C@@H](O)[C@H]2O (stereo partly drawn) [Xanifolia-Y, 3-O-[β-D-galactopyranosyl (1→2)]-α-L-arabinofuranosy (1→3)-β-D-glucuronopyranosyl-21,22-O-diangeloyl-3β, 15α, 16α, 21β, 22α, 28-hexahydroxyolean-12-ene] | 4 µg/mL (≈ 3.5 µM) | −2.5 folds | −2.6 folds | −2.7 folds | −2.6 folds | −1.8 folds | −1.4 folds | −1.6 folds | −1.5 folds | −1.8 folds | −1.9 folds | −1.6 folds | −1.7 folds | −1.6 folds | −1.5 folds | −1.7 folds | −1.6 folds | −1.6 folds | −1.6 folds | −1.7 folds | IC50 [1]: 1.5 to 4.5 µg/mL (≈ 1.31 to 3.94 µM); expression ratio to the control, integrin family [4]: −1.5 to −1.9 folds; TNC Tenascin C (hexabrachion), gene expression ratio to no drug control (D) [5]: −3.2 folds; THBS1 thrombospondin 1, gene expression ratio to no drug control (D) ([6]; probe 201108_s_at): −1.7 folds; THBS1 thrombospondin 1, gene expression ratio to no drug control (D) ([6]; probe 201109_s_at): −2.0 folds; THBS1 thrombospondin 1, gene expression ratio to no drug control (D) ([6]; probe 201110_s_at): −1.8 folds
2 | C/C=C(/C)C(=O)O[C@H]1[C@H](OC(=O)/C(C)=C\C)[C@@]2(CO)C(CC1(C)C)C1=CCC3[C@@]4(C)CC[C@H](O)C(C)(C)C4CC[C@@]3(C)[C@]1(C)[C@@H](O)[C@H]2O (some centres unmarked) [ACH-Y] | 9.5 µg/mL (≈ 14.2 µM) | −1.1 folds | −1.2 folds | −1.1 folds | −1.1 folds | −1.3 folds | −1.4 folds | −1.5 folds | −1.1 folds | −1.3 folds | −2.0 folds | −1.7 folds | −2.0 folds | −1.7 folds | −2.2 folds | −1.8 folds | 1.1 folds | −1.1 folds | −1.4 folds | −2.5 folds | MTT activities of hydrolysed products of compound Y ([1]; FIG. 4C, 4D): very weak; anticancer activity retained after removal of sugars from Y ([1]; relative to Y): 40%; expression ratio to the control, integrin family [4]: −1.1 to −2.5 folds; TNC Tenascin C (hexabrachion), gene expression ratio to no drug control (D) [5]: 1.0 folds; THBS1 thrombospondin 1, gene expression ratio to no drug control (D) ([6]; probe 201108_s_at): −2.2 folds; THBS1 thrombospondin 1, gene expression ratio to no drug control (D) ([6]; probe 201109_s_at): −6.2 folds; THBS1 thrombospondin 1, gene expression ratio to no drug control (D) ([6]; probe 201110_s_at): −4.5 folds
